Experimental data reported in patent publication US20100311717A1, “METHODS AND COMPOSITIONS FOR RETARDING WEIGHT GAIN ASSOCIATED WITH USE OF ATYPICAL ANTIPSYCHOTIC DRUGS” (priority 2007, published 2010).
Where two headings read alike, the source gives them in different places.

Assays:
D3 = D3 (Homo sapiens, UniProt P35462); settings: cited from earlier work
[1] = system: cytochrome p450 (CPY) system; settings: cited from earlier work
[2] = in vivo; cited from earlier work
[3] = not given; remark: listed apart in the source
[4] = bipolar II, 6 weeks, n=10; cited from earlier work
[5] = Parkinson's disease, 3.5-4.5 mg/day; decreased when the dose was lowered; cited from earlier work
[6] = cited from earlier work
[7] = Clinical cases: galactorrhea; settings: Example 2, risperidone 2 mg per day
[8] = in vivo; cited from earlier work; remark: listed apart in the source
[9] = Clinical cases: appetite / hunger; settings: Example 10, olanzapine 2.5 mg HS
[10] = in vivo; cited from earlier work; remark: listed apart in the source
[11] = macroprolactinomas; cited from earlier work
[12] = Example 12, approximately two months on pramipexole, same as before starting
[13] = Example 9, pramipexole 0.25 mg AM & HS with quetiapine

Sequence of D3 (P35462 whole entry): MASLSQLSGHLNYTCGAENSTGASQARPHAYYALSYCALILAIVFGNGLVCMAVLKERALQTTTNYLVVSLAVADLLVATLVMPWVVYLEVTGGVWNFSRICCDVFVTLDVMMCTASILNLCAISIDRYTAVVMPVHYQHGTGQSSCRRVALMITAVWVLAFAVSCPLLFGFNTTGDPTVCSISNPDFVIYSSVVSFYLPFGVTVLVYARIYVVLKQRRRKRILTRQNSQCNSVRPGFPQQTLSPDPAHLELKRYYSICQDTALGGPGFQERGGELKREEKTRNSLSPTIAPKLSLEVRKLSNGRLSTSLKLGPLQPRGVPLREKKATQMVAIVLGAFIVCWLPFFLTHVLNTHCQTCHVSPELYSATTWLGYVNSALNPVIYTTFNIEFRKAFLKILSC

With `C[C@]12C=CC(=O)C=C1CC[C@@H]1[C@@H]2C(=O)C[C@@]2(C)[C@H]1CC[C@]2(O)C(=O)CO` [prednisone] the weight after treatment (human, in vivo) was 185 pounds.

In the case of `CCCN(CCC)CCc1cccc2c1CC(=O)N2` [ropinirole], the “D3 affinity relative to pramipexole” value (D3) is listed as “less D3 affinity” and the “interaction with the cytochrome p450 system” value [1] is listed as “p450 interactions”.

In the case of `CCCN[C@H]1CCc2nc(N)sc2C1` [pramipexole], the “excreted unchanged in the urine” value [2] is listed as 90%, the triglycerides after pramipexole ([3]; Example 7, pre-pramipexole 2.88 mmol/L) is listed as 2.4 mmol/L and the cholesterol after pramipexole ([3]; Example 7, pre-pramipexole 6.6 mmol/L) is listed as 5.6 mmol/L. For the same molecule, the cholesterol [3, 12] was 7.5 mmol/L, the “fasting blood sugar (FBS)” value [3, 12] was 6.6 mmol/L and the triglycerides [3, 12] was 3.6 mmol/L. For the same molecule, the “subjects who developed hypomanic symptoms” value [4] was “One”, the effect on weight [5] was “caused weight gain” and the increase in anxiety ([6]; early in the dose escalation) was 18 of 38. For the same molecule, the nausea reported ([6]; fibromyalgia, 14 week study) was 79%, the “interaction with the cytochrome p450 system” value [1] was “does not interact” and the weight lost (Example 1, pramipexole 0.25 mg twice per day with olanzapine 20 mg per day) was 11 pounds. The weight after treatment (Example 1, pramipexole 0.25 mg twice per day with olanzapine 20 mg per day, from 187 pounds) was 176 pounds, the weight maintained at (Example 3, olanzapine 10 mg per day with pramipexole up to 0.75 mg per day, prednisone 5 mg per day added) was 202 pounds and the “weight after restarting pramipexole” value (Example 4, 0.25 mg twice daily, within the next two weeks) was 174 pounds. For the same molecule, the weight maintained at (Example 4, olanzapine 5 mg per day with pramipexole 0.25 mg twice per day) was 168 pounds, the “weight after discontinuing pramipexole” value (Example 4, within one week, on olanzapine 5 mg per day) was 181 pounds and the weight after treatment (Example 5, pramipexole increased to 0.25 mg per day, after 6 weeks) was 154 pounds. The “weight after discontinuing pramipexole” value (Example 6) was 250 pounds, the weight after treatment (Example 6, pramipexole 0.25 mg per day, from 247 pounds) was 244 pounds and the weight after treatment (Example 7, pramipexole 0.25 mg per day, later) was 212 pounds. The weight after treatment (Example 7, pramipexole increased to 0.25 mg per day, in two weeks) was 214 pounds, the weight maintained at (Example 8, olanzapine 15 mg per day with pramipexole 0.25 mg TID) was 259 pounds and the “weight decreased by” value [13] was 3 pounds. The weight maintained at [13] was 157 pounds, the weight gained (Example 11, pramipexole 0.25 mg AM & HS for 3 weeks, with quetiapine) was 5 pounds and the weight after treatment (Example 12, pramipexole 0.25 mg twice per day) was 172 pounds. The weight after treatment (Example 13, pramipexole up to 0.25 mg twice per day, from 132 pounds) was 127 pounds, the weight lost (Example 13, pramipexole up to 0.25 mg twice per day, in three weeks) was 5 pounds and the weight maintained at (Example 14, olanzapine 10 mg per day with pramipexole 0.25 mg twice per day, several months) was 312 pounds.

In the case of `Cc1nc2n(c(=O)c1CCN1CCC(c3noc4cc(F)ccc34)CC1)CCCC2` [risperidone], the galactorrhea [7] is reported as “developed galactorrhea”.

For `CC(C)C[C@H]1C(=O)N2CCC[C@H]2[C@]2(O)O[C@](NC(=O)[C@@H]3C=C4c5cccc6[nH]c(Br)c(c56)C[C@H]4N(C)C3)(C(C)C)C(=O)N12` [bromocriptine], the abdominal cramps [8] is given as 4%, the constipation [8] is given as 3% and the diarrhea [8] is given as 3%. The dizziness [8] was 17%, the drowsiness [8] was 3% and the fatigue [8] was 7%. For the same molecule, the headache [8] was 19%, the “incidence of adverse effects” value [8] was 69% and the lightheadedness [8] was 5%. The nasal congestion [8] was 3%, the nausea [8] was 49% and the “patients in whom therapy was discontinued because of adverse effects” value [8] was “approximately 5%”. For the same molecule, the vomiting [8] was 5%.

With `Cc1cc2c(s1)Nc1ccccc1N=C2N1CCN(C)CC1` [olanzapine] the appetite [9] was “marked increase in appetite”.

In the case of `CCCN1CC(NS(=O)(=O)N(CC)CC)CC2Cc3c(O)cccc3CC21` (centres unmarked) [Quinagolide, quinagolide], the half-life [10] is given as 24 h and the “patients with significant weight loss” value [11] is given as 11 of 12.
